PubChem BioAssay (NCI)
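48-hour exposure; five concentrations; linearly interpolated endpoints. TGI: total growth inhibition.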

Tests used:
Assay in all cases: NCI anticancer screen, dose series, 48 h
[1] = tested on: MCF7 breast
[2] = tested on: 786-0 renal
[3] = tested on: SR leukemia
[4] = tested on: SK-MEL-28 melanoma
[5] = tested on: NCI-H460 lung
[6] = tested on: MDA-N
[7] = tested on: A549 NSCLC
[8] = tested on: NCI/ADR-RES ovarian
[9] = tested on: KM12 colon
[10] = tested on: LOX IMVI melanoma
[11] = tested on: HCC-2998 colon
[12] = tested on: HL-60(TB) leukemia
[13] = tested on: SK-OV-3 ovarian
[14] = tested on: UO-31 renal
[15] = tested on: T-47D breast
[16] = tested on: K-562 leukemia
[17] = tested on: U251 CNS
[18] = tested on: UACC-62 melanoma
[19] = tested on: DU-145 prostate
[20] = tested on: SW-620 colon
[21] = tested on: PC-3 prostate
[22] = tested on: MDA-MB-435
[23] = tested on: HCT-116 colon
[24] = tested on: MDA-MB-231 breast
[25] = tested on: OVCAR-4 ovarian
[26] = tested on: CCRF-CEM leukemia
[27] = tested on: EKVX NSCLC
[28] = tested on: RPMI-8226 leukemia
[29] = tested on: HT29 colon
[30] = tested on: ACHN renal
[31] = tested on: SK-MEL-5 melanoma
[32] = tested on: NCI-H23 lung
[33] = tested on: SNB-75 CNS
[34] = tested on: NCI-H522 lung
[35] = tested on: UACC-257 melanoma
[36] = tested on: SK-MEL-2 melanoma
[37] = tested on: COLO 205 colon
[38] = tested on: SF-268 CNS
[39] = tested on: HOP-92 NSCLC
[40] = tested on: HS 578T breast
[41] = tested on: IGROV1 ovarian
[42] = tested on: NCI-H226 lung
[43] = tested on: BT-549 breast
[44] = tested on: OVCAR-8 ovarian
[45] = tested on: SF-295 CNS
[46] = tested on: HCT-15 colon
[47] = tested on: RXF 393 renal
[48] = tested on: SN12C renal
[49] = tested on: MOLT-4 leukemia
[50] = tested on: MALME-3M melanoma
[51] = tested on: OVCAR-5 ovarian
[52] = tested on: M14 melanoma
[53] = tested on: SNB-19 CNS
[54] = tested on: OVCAR-3 ovarian
[55] = tested on: CAKI-1 renal
[56] = tested on: HOP-62 NSCLC
[57] = tested on: TK-10 renal
[58] = tested on: KM20L2 colon
[59] = tested on: DMS 273 small cell lung
[60] = tested on: DLD-1 colon
[61] = tested on: LXFL 529 NSCLC
[62] = tested on: SF-539 CNS
[63] = tested on: HOP-18 NSCLC
[64] = tested on: M19-MEL melanoma
[65] = tested on: DMS 114 small cell lung

`COc1cccc(C2CC(C)(O)Oc3cc4c(cc32)OCO4)c1` (stereo not drawn) was tested, and the TGI [1] was > 100 µM, the TGI [2] was > 100 µM and the TGI [3] was 23.8 µM. The TGI [4] was > 100 µM, the TGI [5] was 53.6 µM and the TGI [6] was 7.84 µM. The TGI [7] was > 100 µM, the TGI [8] was 59.3 µM and the TGI [9] was > 100 µM. The TGI [10] was > 100 µM, the TGI [11] was > 100 µM and the TGI [12] was > 100 µM. The TGI [13] was 67.2 µM, the TGI [14] was 72.2 µM and the TGI [15] was > 100 µM. The TGI [16] was > 100 µM, the TGI [17] was 86.5 µM and the TGI [18] was > 100 µM. For the same molecule, the TGI [19] was > 100 µM, the TGI [20] was > 100 µM and the TGI [21] was > 100 µM. The TGI [22] was 15.2 µM, the TGI [23] was 28.5 µM and the TGI [24] was 96.2 µM. The TGI [25] was > 100 µM, the TGI [26] was > 100 µM and the TGI [27] was > 100 µM. The TGI [28] was 66.2 µM, the TGI [29] was 28.8 µM and the TGI [30] was > 100 µM. The TGI [31] was > 100 µM, the TGI [32] was > 100 µM and the TGI [33] was 61.7 µM. The TGI [34] was 30.6 µM, the TGI [35] was > 100 µM and the TGI [36] was 43.6 µM. The TGI [37] was 43.1 µM, the TGI [38] was > 100 µM and the TGI [39] was 93.3 µM. The TGI [40] was 49.6 µM, the TGI [41] was > 100 µM and the TGI [42] was 53 µM. The TGI [43] was > 100 µM, the TGI [44] was > 100 µM and the TGI [45] was 95.7 µM. For the same molecule, the TGI [46] was 83.3 µM, the TGI [47] was > 100 µM and the TGI [48] was > 100 µM. The TGI [49] was 60.5 µM, the TGI [50] was > 100 µM and the TGI [51] was > 100 µM. For the same molecule, the TGI [52] was > 100 µM, the TGI [53] was > 100 µM and the TGI [54] was 56 µM. For the same molecule, the TGI [55] was > 100 µM, the TGI [56] was 74.4 µM and the TGI [57] was 80.2 µM.

`CN(C)C(=C1C(Br)=C(Br)C(Br)=C1Br)N(C)C` was tested, and the TGI [2] was > 100 µM, the TGI [4] was > 100 µM and the TGI [58] was > 100 µM. For the same molecule, the TGI [5] was > 100 µM, the TGI [59] was > 100 µM and the TGI [7] was > 100 µM. For the same molecule, the TGI [9] was > 100 µM, the TGI [10] was 55.6 µM and the TGI [11] was > 100 µM. For the same molecule, the TGI [12] was > 100 µM, the TGI [13] was > 100 µM and the TGI [60] was > 100 µM. The TGI [14] was > 100 µM, the TGI [16] was > 100 µM and the TGI [17] was > 100 µM. For the same molecule, the TGI [18] was > 100 µM, the TGI [20] was > 100 µM and the TGI [61] was > 100 µM. For the same molecule, the TGI [62] was > 100 µM, the TGI [63] was > 100 µM and the TGI [25] was > 100 µM. The TGI [26] was 95.3 µM, the TGI [27] was > 100 µM and the TGI [28] was 76.7 µM. For the same molecule, the TGI [29] was > 100 µM, the TGI [30] was > 100 µM and the TGI [31] was > 100 µM. The TGI [32] was > 100 µM, the TGI [33] was > 100 µM and the TGI [34] was 39.9 µM. The TGI [35] was > 100 µM, the TGI [64] was > 100 µM and the TGI [65] was > 100 µM. For the same molecule, the TGI [36] was > 100 µM, the TGI [37] was > 100 µM and the TGI [38] was > 100 µM. The TGI [39] was > 100 µM, the TGI [41] was > 100 µM and the TGI [44] was > 100 µM. For the same molecule, the TGI [45] was > 100 µM, the TGI [46] was > 100 µM and the TGI [47] was > 100 µM. For the same molecule, the TGI [48] was > 100 µM, the TGI [49] was > 100 µM and the TGI [50] was > 100 µM. For the same molecule, the TGI [51] was > 100 µM, the TGI [52] was > 100 µM and the TGI [54] was > 100 µM. The TGI [55] was > 100 µM, the TGI [56] was > 100 µM and the TGI [57] was > 100 µM.
